Drawing on PubChem BioAssay (NCI), this text covers GI50 and TGI for eight molecules.

Common to all, as to test: NCI tumour cell line growth inhibition, 48 h
For test [1], the system named is OVCAR-8 ovarian.
The subject of test [2] is DU-145 prostate.
Test [3] deals with HCT-15 colon.
In test [4] the test system is MOLT-4 leukemia.
In test [5] the test system is U251 CNS.
The subject of test [6] is HOP-62 NSCLC.
Test [7] relates to SN12C renal.
Test [8] concerns MALME-3M melanoma.
The test system of test [9] is LOX IMVI melanoma.
In test [10] the test system is SK-MEL-5 melanoma.

The structures appear in SMILES notation. Where “and” joins values, the source holds several entries; their conditions need not be identical. Equal entries are not always repeated.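 Step 1: Grow cells in 96-well plates. Step 2: Expose to compound for 48 hours at 5 concentrations. Step 3: Interpolate endpoints linearly; if unreached, use highest concentration. GI50 marks 50% less growth. TGI: total growth inhibition.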

Regarding `Cc1c(N)nc(C2CC(=O)N2CC(N)C(N)=O)nc1C(=O)NC(C(=O)NC(C)C(O)C(C)C(=O)NC(C(=O)NCCc1nc(-c2nc(C(=O)NCCNCC(C)O)cs2)cs1)C(C)O)C(OC1OC(CO)C(O)C(O)C1OC1OC(CO)C(O)C(OC(N)=O)C1O)c1cnc[nH]1` (stereo not drawn), the GI50 was 6.97 µM in test [1]; 42.7 µM in [3]; 4.23 µM in [4]; 2.53 µM in test [5]; 0.188 µM in [6]; 5.33 µM in test [7]. Further, the GI50 was 1.16 µM in [8], 0.712 µM in [9] and 0.644 µM in [10]. Moreover, the TGI was 50 µM and > 100 µM in test [1]; 37.6 µM in test [2]; 50 µM and > 75.9 µM in test [3]; 50 µM and 6.66 µM in test [4]; 50 µM and 24.2 µM in test [5]; 6.25 µM and 0.914 µM in test [6]. Further, the TGI in test [7] is 36.4 µM and 27 µM; in test [8], 22.5 µM and 11.9 µM; in test [9] it was 9.28 µM and 8.16 µM; in [10], 11.6 µM and 17.9 µM.

Take `COc1ccc(Cl)cc1Nc1nc(C(F)(F)F)ccc1C(=O)N/N=C/c1ccc(Cl)cc1`: the GI50 in test [1] was 5.1 µM; in test [2], 7.02 µM; in [3], 2.41 µM; in [4], 1.76 µM; in test [5], 4.79 µM; in [6] it was 3.51 µM. The GI50 was 8.67 µM in test [7], 1.36 µM in test [8], 8.08 µM in test [9] and 2.23 µM in test [10]. The TGI in [1] is more than 100 µM; in test [2], more than 100 µM; in test [3], more than 100 µM; in [4] it was 11.1 µM; in test [5], 69.3 µM; in test [6] it was 24 µM. Also, the TGI was more than 100 µM in test [7], 9.2 µM in test [8], more than 100 µM in test [9] and 23.5 µM in test [10].

In the case of `O=C1OC(c2ccccc2)=N/C1=C\c1ccc(N(CCCl)CCCl)cc1`, the TGI in [1] was more than 100 µM; in [2], more than 100 µM; in test [3] it was more than 100 µM; in test [4], more than 79.9 µM; in test [5], more than 100 µM; in test [6], more than 100 µM. Also, the TGI in test [7], in test [8], in test [9] and in [10] was more than 100 µM throughout.

Regarding `O=C1COc2c(CCNCCN(C(=O)CCNCCc3ccc(Cl)c(Cl)c3)C3CCCCC3)ccc(O)c2N1`, the GI50 in [1] was 17.2 µM; in test [2], 17.7 µM; in [3], 15.7 µM; in [4], 15.8 µM; in test [5] it was 16.3 µM; in test [6], 15.3 µM. Further, the GI50 in [7] is 14.7 µM; in [8] it was 21.9 µM; in [9], 15.6 µM; in test [10], 15.6 µM. In addition, the TGI in test [1] was found to be 34 µM; in test [2], 32 µM; in test [3] it was 31.2 µM; in [4] it was 34.5 µM; in test [5] it was 32 µM; in test [6] it was 32.7 µM. For the same molecule, the TGI was 30.3 µM in test [7], 39.6 µM in test [8], 30.2 µM in [9] and 29.4 µM in test [10].

`COc1ccc(C[C@H](N)C(=O)N[C@@H]2[C@@H](CO)OC(n3cnc4c(N(C)C)ncnc43)[C@@H]2O)cc1` (stereo partly drawn): the GI50 in [1] was 0.276 µM; in test [2], 0.458 µM; in test [3], 6.63 µM; in test [4], 0.275 µM; in test [5], 0.136 µM; in [8] it was 0.637 µM. For the same molecule, the GI50 in test [9] was 0.202 µM; in [10] it was 0.287 µM. Further, the TGI in test [1] amounted to 1.13 µM; in test [2], 2.53 µM; in test [3], 29.9 µM; in [4], 1.77 µM; in test [5] it was 0.507 µM; in test [6], 1.1 µM. In addition, the TGI amounted to 1.31 µM in [7], 1.39 µM in test [8], 0.839 µM in test [9] and 0.914 µM in test [10].

On to `Oc1ccc(/C=N/Nc2nnc(N/N=C/c3ccc(O)cc3O)c3ccccc23)c(O)c1`, for which the GI50 in test [1] is 0.494 µM; in test [2], 0.432 µM; in [3], 0.332 µM; in test [4] it was 0.432 µM; in test [5], 0.312 µM; in test [6] it was 0.509 µM. For the same molecule, the GI50 in test [7] was 0.507 µM; in test [8] it was 0.633 µM; in test [9], 0.277 µM; in test [10], 0.413 µM. The TGI is 0.831 µM and 5.99 µM in test [2]; 0.976 µM and 5.34 µM in [5]; 0.793 µM and 2.02 µM in test [6]; 6.72 µM in [7]; 4.28 µM in [8]; 0.871 µM and 1.5 µM in [9]. Also, the TGI in test [10] was 0.744 µM and 3.19 µM.

Take `O=C(Nc1cccc(C(F)(F)F)c1)Nc1ccc(OCc2nnc(-c3ccccc3)o2)c(F)c1`: the GI50 in test [1] is 5.19 µM; in test [2], 6.06 µM; in test [3], 2.92 µM; in test [4], 3.59 µM; in [5] it was 3.73 µM; in test [6] it was 3.4 µM. For the same molecule, the GI50 in [7] is 9.36 µM; in test [8], 3.35 µM; in test [9] it was 4.58 µM; in test [10], 5.71 µM. In addition, the TGI in [1] was found to be 32.1 µM; in test [2], 28.3 µM; in [3], 54.3 µM; in [4], 39.8 µM; in [5], 19.6 µM; in test [6], 18 µM. For the same molecule, the TGI in test [7] was found to be 46.1 µM; in test [9], 25.6 µM; in [10], 21.3 µM.

As for `OCCn1c(-c2ccncc2)c(-c2ccc(F)cc2)c2ncccc21`, the GI50 in test [1], in test [2], in test [3], in [4], in test [5] and in test [6] was more than 25 µM throughout. In addition, the GI50 in test [7], in test [8], in test [9] and in [10] was more than 25 µM in each case. Moreover, the TGI in [1], in test [2], in [3], in test [4], in test [5] and in test [6] was more than 25 µM each time. The TGI in test [7], in [8], in [9] and in test [10] was more than 25 µM in each case.
